Bounds are passed on as bounds.

As a reminder, the IC50 is the concentration that gives 50% inhibition.

The assay deals with T1, human CXCR3 (N-delta 4) (Homo sapiens, UniProt P49682).
T1 construct: CD8 leader (N); Flag; expressed in transfected cells; membranes prepared
T1 sequence (P49682 5-368 limits assumed): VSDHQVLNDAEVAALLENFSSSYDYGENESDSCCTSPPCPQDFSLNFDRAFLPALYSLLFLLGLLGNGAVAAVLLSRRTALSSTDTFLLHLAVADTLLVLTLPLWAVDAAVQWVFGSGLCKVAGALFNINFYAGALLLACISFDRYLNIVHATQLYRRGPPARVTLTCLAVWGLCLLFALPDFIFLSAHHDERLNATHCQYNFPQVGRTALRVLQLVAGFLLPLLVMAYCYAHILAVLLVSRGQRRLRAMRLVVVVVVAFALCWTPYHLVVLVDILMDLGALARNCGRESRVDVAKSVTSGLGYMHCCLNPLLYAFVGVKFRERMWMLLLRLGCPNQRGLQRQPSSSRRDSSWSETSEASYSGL
The assay is described as follows: Human CXCR3 (N-delta 4) Scintillation Proximity Assay (SPA), [125I] IP-10 binding to Ba/F3-hCXCR3 membranes. The conditions noted are these: IC50 rating, Table 1; read-out: IC50.
For the compound `CC[C@H]1CN(c2nc(N)c(C(=O)NCCN/C(N)=N/C#N)nc2Cl)CCN1C1CCN(Cc2ccc(Cl)cc2C#N)CC1` [compound 236], the IC50 is greater than 100 nM.

Regarding `CC[C@H]1CN(c2nc(N)c(C(=O)NCCNS(=O)(=O)c3cn(C)cn3)nc2Cl)CCN1C1CCN(Cc2ccc(C#N)cc2)CC1` [compound 237], the half-maximal inhibitory concentration (IC50) is greater than 100 nM.

As for `CC[C@H]1CN(c2nc(N)c(C(=O)NCCNS(=O)(=O)C(F)(F)F)nc2Cl)CCN1C1CCN(Cc2ccc(Cl)cc2)CC1` [compound 238], the IC50 is less than 25 nM.

Turning to `CC[C@H]1CN(c2nc(N)c(C(=O)NCCNS(=O)(=O)C(F)(F)F)nc2Cl)CCN1C1CCN(Cc2ccc(C#N)cc2)CC1` [compound 239], the IC50 is less than 25 nM.

With `CC[C@H]1CN(c2nc(N)c(C(=O)NCCNS(=O)(=O)C(F)(F)F)nc2Cl)CCN1C1CCN(Cc2ccc(F)c(F)c2N2CC[C@@H](O)C2)CC1` [compound 240], the 50% inhibitory concentration (IC50) was less than 25 nM.

As for `CC[C@H]1CN(c2nc(N)c(C(=O)NCCNS(=O)(=O)C(F)(F)F)nc2Cl)CCN1C1CCN(Cc2ccc(Cl)cc2N2CC[C@@H](O)C2)CC1` [compound 241], the IC50 was less than 25 nM.

For `CC[C@H]1CN(c2nc(N)c(C(=O)NCCNS(=O)(=O)CC)nc2Cl)CCN1C1CCN(Cc2ccc(C#N)cc2)CC1` [compound 242], the IC50 is 25 to 100 nM.

`CC[C@H]1CN(c2nc(N)c(C(=O)NCCNS(C)(=O)=O)nc2Cl)CCN1C1CCN(Cc2ccc(Cl)cc2C(=N)N)CC1` [compound 243]: the IC50 was less than 25 nM.

For the compound `CC[C@H]1CN(c2nc(N)c(C(=O)NCCNS(C)(=O)=O)nc2Cl)CCN1C1CCN([C@@H](CO)c2ccc(Cl)cc2)CC1` [compound 244], the IC50 is less than 25 nM.

Regarding `CC[C@H]1CN(c2nc(N)c(C(=O)NCCNS(C)(=O)=O)nc2Cl)CCN1C1CCN(Cc2ccc(Cl)cc2)CC1` [compound 245], the IC50 was less than 25 nM.

Turning to `CCOC(=O)/N=C(\N)c1cc(Cl)ccc1CN1CCC(N2CCN(c3nc(N)c(C(=O)NCCNS(C)(=O)=O)nc3Cl)C[C@@H]2CC)CC1` [compound 246], the 50% inhibitory concentration (IC50) was less than 25 nM.

Turning to `CC[C@H]1CN(c2nc(N)c(C(=O)NCCNS(C)(=O)=O)nc2Cl)CCN1C1CCN(Cc2ccc(C#N)cc2)CC1` [compound 247], the half-inhibitory concentration (IC50) was 25 to 100 nM.

Take `CC[C@H]1CN(c2nc(N)c(C(=O)NCCNS(C)(=O)=O)nc2Cl)CCN1C1CCN(Cc2ccc(Cl)cc2N2CC[C@@H](O)C2)CC1` [compound 248]: the half-maximal inhibitory concentration (IC50) lay in the range of 25 to 100 nM.

With `CC[C@H]1CN(c2nc(N)c(C(=O)NCCNS(C)(=O)=O)nc2Cl)CCN1C1CCN([C@H](CO)c2ccc(Cl)cc2)CC1` [compound 249], the IC50 lay in the range of 25 to 100 nM.

For `CC[C@H]1CN(c2nc(N)c(C(=O)NCCNS(C)(=O)=O)nc2Cl)CCN1C1CCN([C@@H](C(=O)OC)c2ccc(Cl)cc2)CC1` [compound 250], the concentration for half-maximal inhibition (IC50) lay in the range of 25 to 100 nM.

As to `CC[C@H]1CN(c2nc(N)c(C(=O)NCCNS(C)(=O)=O)nc2Cl)CCN1C1CCN([C@H](C(=O)OC)c2ccc(Cl)cc2)CC1` [compound 251], the IC50 was greater than 100 nM.

`CC[C@H]1CN(c2nc(N)c(C(=O)NCCNS(C)(=O)=O)nc2Cl)CCN1C1CCN(Cc2ccc(F)c(F)c2N2CC[C@@H](O)C2)CC1` [compound 252]: the IC50 was 25 to 100 nM.

Consider `CC[C@H]1CN(c2nc(N)c(C(=O)NCCNS(C)(=O)=O)nc2Cl)CCN1C1CCN(Cc2ccc(Cl)cc2C#N)CC1` [compound 253], for which the 50% inhibitory concentration (IC50) lay within 25 to 100 nM.

`CC[C@H]1CN(c2nc(N)c(C(=O)NCCNS(C)(=O)=O)nc2Cl)CCN1C1CCN(Cc2ccc(Cl)cc2C(=N)NC)CC1` [compound 254]: the concentration for half-maximal inhibition (IC50) lay within 25 to 100 nM.

In the case of `CC[C@H]1CN(c2nc(N)c(C(=O)NCCNS(=O)(=O)N(C)C)nc2Cl)CCN1C1CCN(Cc2ccc(C#N)cc2)CC1` [compound 255], the IC50 was 25 to 100 nM.

On to `CC[C@H]1CN(c2nc(NCc3ccc(F)c(F)c3)c(C(=O)NCCNS(N)(=O)=O)nc2Cl)CCN1C1CCN(Cc2ccc(F)c(F)c2)CC1` [compound 256], for which the concentration for half-maximal inhibition (IC50) was less than 25 nM.

Regarding `CC[C@H]1CN(c2nc(N)c(C(=O)NCCNS(N)(=O)=O)nc2Cl)CCN1C1CCN([C@@H](CO)c2ccc(Cl)cc2)CC1` [compound 257], the IC50 was less than 25 nM.

For the compound `CC[C@H]1CN(c2nc(N)c(C(=O)NCCNS(N)(=O)=O)nc2Cl)CCN1C1CCN(Cc2ccc(Cl)cc2C(=N)N)CC1` [compound 258], the IC50 is less than 25 nM.

Regarding `CC[C@H]1CN(c2nc(N)c(C(=O)NCCNS(N)(=O)=O)nc2Cl)CCN1C1CCN(C(CO)c2ccc(Cl)cc2)CC1` (stereo partly shown) [compound 259], the IC50 is less than 25 nM.

Take `CC[C@H]1CN(c2nc(N)c(C(=O)NCCNS(N)(=O)=O)nc2Cl)CCN1C1CCN(Cc2ccc(Cl)cc2C(=N)NC)CC1` [compound 260]: the IC50 was less than 25 nM.

On to `CC[C@H]1CN(c2nc(N)c(C(=O)NCCNS(N)(=O)=O)nc2Cl)CCN1C1CCN([C@@H](C(=O)OC)c2ccc(Cl)cc2)CC1` [compound 261], for which the IC50 fell in the range of 25 to 100 nM.

As to `CC[C@H]1CN(c2nc(N)c(C(=O)NCCNS(N)(=O)=O)nc2Cl)CCN1C1CCN([C@H](CO)c2ccc(Cl)cc2)CC1` [compound 262], the concentration for half-maximal inhibition (IC50) was greater than 100 nM.

Regarding `CC[C@H]1CN(c2nc(N)c(C(=O)NCCNS(N)(=O)=O)nc2Cl)CCN1C1CCN(C(C(=O)OC)c2ccc(Cl)cc2)CC1` (stereo partly shown) [compound 263], the IC50 is greater than 100 nM.

Take `CC[C@H]1CN(c2nc(N)c(C(=O)NCCNS(N)(=O)=O)nc2Cl)CCN1C1CCN(Cc2ccc(Cl)cc2)CC1` [compound 264]: the concentration for half-maximal inhibition (IC50) is less than 25 nM.

As to `CC[C@H]1CN(c2nc(N)c(C(=O)NCCNS(N)(=O)=O)nc2Cl)CCN1C1CCN(Cc2ccc(F)c(F)c2)CC1` [compound 265], the concentration for half-maximal inhibition (IC50) is less than 25 nM.

For `CC[C@H]1CN(c2nc(N)c(C(=O)NCCNS(N)(=O)=O)nc2Cl)CCN1C1CCN(Cc2ccc(C#N)cc2)CC1` [compound 266], the 50% inhibitory concentration (IC50) was less than 25 nM.

`CC[C@H]1CN(c2nc(N)c(C(=O)NCCNS(N)(=O)=O)nc2Cl)CCN1C1CCN(Cc2ccc(Cl)cc2C#N)CC1` [compound 267]: the IC50 was less than 25 nM.

Turning to `CC[C@H]1CN(c2nc(N)c(C(=O)NCCOC)nc2Cl)CCN1C1CCN(Cc2ccc(Cl)cc2)CC1` [compound 268], the concentration for half-maximal inhibition (IC50) was less than 25 nM.

Regarding `CC[C@H]1CN(c2nc(N)c(C(=O)N=C(N)N)nc2Cl)CCN1C1CCN(Cc2ccc(Cl)cc2F)CC1` [compound 269], the half-inhibitory concentration (IC50) was greater than 100 nM.

Consider `CC[C@H]1CN(c2nc(N)c(C(=O)NNC(=S)NC)nc2Cl)CCN1C1CCN(Cc2ccc(Cl)cc2)CC1` [compound 270], for which the IC50 is less than 25 nM.

Regarding `CC[C@H]1CN(c2nc(N)c(C(=O)NN)nc2Cl)CCN1C1CCN(Cc2ccc(Cl)cc2)CC1` [compound 271], the half-maximal inhibitory concentration (IC50) is less than 25 nM.

`CC[C@H]1CN(c2nc(N)c(C(=O)NNC(C)=O)nc2Cl)CCN1C1CCN(Cc2ccc(Cl)cc2)CC1` [compound 272]: the IC50 was in the range of 25 to 100 nM.

With `CC[C@H]1CN(c2nc(N)c(C(=O)N[C@@H]3CCN(C(=O)OC(C)(C)C)C3)nc2Cl)CCN1C1CCN(Cc2ccc(Cl)cc2)CC1` [compound 274], the IC50 is greater than 100 nM.

`CC[C@H]1CN(c2nc(N)c(C(=O)NCCCN3CCCS3(=O)=O)nc2Cl)CCN1C1CCN(Cc2ccc(C#N)cc2)CC1` [compound 275]: the concentration for half-maximal inhibition (IC50) was greater than 100 nM.

Regarding `CC[C@H]1CN(c2nc(N)c(C(=O)NCCCN3CCCC3=O)nc2Cl)CCN1C1CCN(Cc2ccc(C#N)cc2)CC1` [compound 276], the IC50 was greater than 100 nM.

With `CC[C@H]1CN(c2nc(N)c(C(=O)NC3CCOC3=O)nc2Cl)CCN1C1CCN(Cc2ccc(Cl)cc2)CC1` (stereo partly shown) [compound 277], the IC50 was less than 25 nM.

Take `CC[C@H]1CN(c2nc(N)c(C(=O)NC3CCOC3=O)nc2Cl)CCN1C1CCN(Cc2ccc(Cl)cc2)CC1` (stereo partly shown) [compound 278]: the 50% inhibitory concentration (IC50) is less than 25 nM.

With `CC[C@H]1CN(c2nc(N)c(C(=O)N[C@H]3CCOC3=O)nc2Cl)CCN1C1CCN(Cc2ccc(Cl)cc2)CC1` [compound 279], the concentration for half-maximal inhibition (IC50) was less than 25 nM.

In the case of `CC[C@H]1CN(c2nc(N)c(C(=O)N[C@@H]3CCNC3=O)nc2Cl)CCN1C1CCN(Cc2ccc(C#N)cc2)CC1` [compound 280], the IC50 was greater than 100 nM.

For the compound `CC[C@H]1CN(c2nc(N)c(C(N)=O)nc2Cl)CCN1C1(C)CCN(Cc2ccc(Cl)cc2C(N)=O)CC1` [compound 281], the half-inhibitory concentration (IC50) is greater than 100 nM.

With `CC[C@H]1CN(c2nc(N)c(C(N)=O)nc2Cl)CCN1C1CCN(Cc2ccc(Cl)cc2)[C@H](C(N)=O)C1` (stereo partly shown) [compound 282], the half-inhibitory concentration (IC50) fell in the range of 25 to 100 nM.

As for `CC[C@H]1CN(c2nc(N)c(C(N)=O)nc2Cl)CCN1[C@H]1CCN(Cc2ccc(Cl)cc2)C[C@@H]1O` [compound 283], the IC50 was greater than 100 nM.

`CC[C@H]1CN(c2ncc(C(N)=O)nc2Cl)CCN1C1CCN(Cc2ccc(Cl)cc2F)CC1` [compound 284]: the IC50 is less than 25 nM.

Turning to `CC[C@H]1CN(c2ncc(C(N)=O)nc2Cl)CCN1C1CCN(Cc2ccc(Cl)cc2[C@H](O)C(N)=O)CC1` [compound 285], the concentration for half-maximal inhibition (IC50) was less than 25 nM.

For `CC[C@H]1CN(c2ncc(C(N)=O)nc2Cl)CCN1C1CCN(Cc2ccc(Cl)cc2[C@@H](O)C(N)=O)CC1` [compound 286], the IC50 was less than 25 nM.

In the case of `CNC(=O)c1cnc(N2C[C@H](C)N(C3CCN(Cc4ccc(Cl)cc4F)CC3)C[C@H]2C)cn1` [compound 287], the concentration for half-maximal inhibition (IC50) is greater than 100 nM.

With `COC(=O)c1cnc(N2C[C@H](C)N(C3CCN(Cc4ccc(Cl)cc4F)CC3)C[C@H]2C)cn1` [compound 288], the half-inhibitory concentration (IC50) is greater than 100 nM.

On to `C[C@@H]1CN(C2CCN(Cc3ccc(Cl)cc3F)CC2)[C@@H](C)CN1c1cnc(C(N)=O)cn1` [compound 289], for which the half-maximal inhibitory concentration (IC50) is greater than 100 nM.

For `CC[C@H]1CN(c2nc(N(C)C)c(C(=O)OC)nc2Cl)CCN1C1CCN(Cc2ccc(Cl)cc2)CC1` [compound 290], the concentration for half-maximal inhibition (IC50) was less than 25 nM.

Take `CC[C@H]1CN(c2nc(NC(=O)N(C)C)c(C(=O)OC)nc2Cl)CCN1C1CCN(Cc2ccc(Cl)cc2)CC1` [compound 291]: the IC50 fell in the range of 25 to 100 nM.

The record behind these values is patent publication US7868005B2, “Pyrazinyl substituted piperazine-piperidines with CXCR3 antagonist activity” (Schering Corporation, priority 2005, dated 2011).
